The results in this text go back to patent US6521643B1, “Pyridine compounds and their pharmaceutical use” (Fujisawa Pharmaceutical Co., Ltd., priority 1999, dated 2003).

The target in series [1] is T1, Nitric Oxide Synthase (NOS) (Rattus norvegicus, UniProt P29476).
T1 construct: each drug was incubated with the brain cytosol (200 μg protein/tube); from tissue; host or cells: whole brain (including cerebellum) of male SD rats, cytosolic supernatant (48,000 x g), passed through Dowex AG50WX-8
The series can be described thus: Binding assay using nitric oxide synthase (NOS), crude preparation from rat brain cytosol, [3H]Na radioligand. Conditions: test compound 10^−4M, brain cytosol of male SD rats, 10 nM [^3H]Na, 27° C., 90 minutes; for inhibition: read-out: Inhibition (%) of specific binding. The method, then: Test: Binding Assay Using Nitric Oxide Synthase (NOS)
A crude preparation of NOS was obtained from brains of male SD rats. The whole brain (including cerebellum) was homogenized with 5 volume (W/V) of 50 mM Tris buffer (pH 7.0 at 4° C.) and centrifuged at 48,000×g for 20 minutes. The pellet was discarded and the supernatant was passed through ¼ volume (V/V) of Dowex AG50WX-8 resin (Na^+ form), in order to remove endogenous arginine. The supernatant was collected, the pH was adjusted to 7.0 at 22° C., and this cytosolic preparation was frozen and stored at −80° C. until required. In the binding assay, each drug was incubated with the brain cytosol (200 μg protein/tube) in 0.15 ml (final volume) of 50 mM Tris buffer containing 10 μM CaCl2 and 10 nM [^3H]Na (Amersham, UK). Incubation was performed at 27° C. for 90 minutes and terminated by vacuum filtration through 0.3% polyethyleneimine pretreated GF/B glass fibre filters which were subsequently washed with distilled water (4° C., 4 ml×4). Nonspecific binding was defined by use of […] Na. Data are expressed as inhibition % of specific binding.

Counter-ions that a name gives are not always drawn.

Broadly, the inhibition is the relative decrease from the control value, in per cent. With `Cc1ccnc(-c2ccc3ccc(N)nc3c2)c1` [(e), 2-Amino-7-(4-methylpyridin-2-yl)quinoline dihydrochloride], the inhibition in series [1] was determined as 98%.

Take `CCSC(=N)Nc1cccc(-c2cc(OC)ccn2)c1` [(c), N-(3-(4-Methoxypyridin-2-yl)phenyl)-S-ethylisothiourea dihydrochloride]: in series [1], the inhibition worked out at 100%. As to `COc1ccnc(-c2sc(NC(=N)N)nc2C)c1` [(a), 2-Guanidino-4-methyl-5-(4-methoxypyridin-2-yl)thiazole], the inhibition in series [1] came to 99%. On the same count and under the same terms, as for `COc1ccnc(-c2ccc3ccc(N)nc3c2)c1` [(d), 2-Amino-7-(4-methoxypyridin-2-yl)quinoline dihydrochloride], the figure is 99.3%. By melting point is commonly meant the temperature of the solid-liquid transition. `CC(=O)NC(c1cc(C)ccn1)c1sc(NC(=N)N)nc1C` (centres unmarked) [Example 26, N-(5-(acetylamino-(4-methylpyridin-2-yl)methyl)-4-methylthiazol-2-yl)-guanidine] yielded a melting point of 239 to 240 °C. As to `COc1ccnc(-c2ccc(C)c(NC(=N)N)c2)c1.Cl.Cl` [(b), (5-(4-Methoxypyridin-2-yl)-2-methylphenyl)guanidine dihydrochloride], the “Inhibition (%) of specific binding” value in series [1] was found to be 98.9%.

`Cc1ccnc(C(O)c2sc(NC(=N)N)nc2C)c1` (centres unmarked) [Example 24, N-(5-(hydroxy-(4-methylpyridin-2-yl)methyl)-4-methylthiazol-2-yl)guanidine] gave a melting point of 150.5 to 151.5 °C. Regarding `CNc1ccc2ccc(-c3cc(OC)ccn3)cc2n1` [(f), 7-(4-Methoxypyridin-2-yl)-2-methylaminoquinoline dihydrochloride], the inhibition in series [1] was found to be 99.4%.
